Legend:
[1] = initial acute toxicity evaluation (liver, kidney, cardiac markers); format: in vivo; details: rats, 5 mg/kg intravenously (femoral vein), blood 3 hours later
Experimental: As an initial toxicity evaluation of KBB-NX series synthetic compounds, KBB-NX-16 and KBB-NX-20 were injected intravenously into the femoral vein of rats at a dose of 5 mg/kg and blood was collected 3 hours later to test for markers of liver toxicity (marker ALT), nephrotoxicity (BUN, creatinine) and cardiotoxicity (CK-MB, myoglobin).

RPMI8226-GFP-FLUC cells = assay: mouse model of multiple myeloma (RPMI8226-GFP-FLUC, tail vein); format: in vivo, NSG mice; details: 5 mg/kg intravenously, 2 days per week for 3 cycles, untreated group all died on day 50
Experimental: A total of 12 male NSG (NOD scid gamma) mice were used. The animals were housed in a semi-specific pathogen free (Semi-SPF) animal house at the Chonnam National University Center for Biomedical Science Convergence at a temperature of 20-24° C., humidity of 40-60%, and a 12-hour light/dark cycle, with 5 animals per cage. Sterile water and feed were provided ad libitum, and all experimental procedures were in accordance with the Animal welfare act and approved by the Institutional Animal Care and Use Committee of Chonnam National University (Approval No.: CNU IACUC-H-2020-36). […]
Mice were injected with RPMI8226-GFP-FLUC cells, and 8 days later, cancer formation was determined using an in vivo imaging system (IVIS) (NightOWL II LB983 NC100, Berthold, Germany). […]
Meanwhile, a multiple myeloma cell line (RPMI8226) was transfected with a puromycin resistance gene and a luciferase-GFP gene using a lentiviral vector at the EF1a promoter site, and the dynamics of MM cells in mice were identified and monitored by an in vivo bioluminescence imaging assay (FIG. 28). The transgenic multiple myeloma cell line, which can be monitored in vivo, was injected 1×10^7 cells/ml through the tail vein of 6-11 week old combined immunodeficient NSG mice to establish a mouse model of multiple myeloma. […]

Row | SMILES | cardiotoxicity (CK-MB, myoglobin) [1] | hepatotoxicity (marker ALT) [1] | nephrotoxicity (BUN, creatinine) [1] | survival after transplantation (RPMI8226-GFP-FLUC cells) [days]
1 | COc1cc(O)c(CC=C(C)C)c2c1C(=O)CC(c1ccc(C(C)C)cc1)O2 (centres unmarked) [KBB-NX-16, 7-hydroxy-2-(4-isopropylphenyl)-5-methoxy-8-(3-methylbut-2-en-1-yl)chroman-4-one] | did not exhibit significant | did not exhibit significant | did not exhibit significant | –
2 | COc1cc(O)cc(O)c1C(=O)/C=C/c1ccc(O)cc1 [KBB-NX-2, (E)-1-(2,4-dihydroxy-6-methoxyphenyl)-3-(4-hydroxyphenyl)prop-2-en-1-one] | – | – | – | 64
3 | Nc1cccc2c1CN(C1CCC(=O)NC1=O)C2=O (centres unmarked) [lenalidomide, 3-(4-amino-1-oxoisoindolin-2-yl)piperidine-2,6-dione, reference compound] | – | – | – | 64
4 | COc1cc(O)cc2c1C(=O)CC(c1ccc(C)s1)O2 (centres unmarked) [KBB-NX-20, 7-hydroxy-5-methoxy-2-(5-methylthiophene-2-yl)chroman-4-one] | did not exhibit significant | did not exhibit significant | did not exhibit significant | –
